Columns and labels:
Experiment in all cases: relative viability (nuclei count vs DMSO), 5 days (fraction); higher = more cells survive
Calu-6 = system: Calu-6
Method in brief: (§1)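 Lung cancer cell lines in 1536-well plates got either a single drug or a fixed anchor-drug dose together with five library-drug doses (not always all listed) in √10 steps, by pin tool, on the day after seeding. Nuclei were counted after 5 days, and relative viability is the treated-to-vehicle ratio of nuclei counts. Values are medians of duplicate plates.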

EBC-1 = system: EBC-1
Method in brief: as §1

NCI-H1355 = system: NCI-H1355
Method in brief: as §1

LCLC-103H = system: LCLC-103H
Method in brief: as §1

NCI-H1703 = system: NCI-H1703
Method in brief: as §1

NCI-H1299 = system: NCI-H1299
Method in brief: as §1

A549 = system: A549
Method in brief: as §1

IA-LM = system: IA-LM
Method in brief: as §1

NCI-H520 = system: NCI-H520
Method in brief: as §1

For `CC1(C)CCC(c2ccc(Cl)cc2)=C(CN2CCN(c3ccc(C(=O)NS(=O)(=O)c4ccc(N[C@H](CCN5CCOCC5)CSc5ccccc5)c(S(=O)(=O)C(F)(F)F)c4)cc3)CC2)C1` [Navitoclax] + C[C@@H](Oc1cc(-c2cnn(C3CCNCC3)c2)cnc1N)c1c(Cl)ccc(F)c1Cl [Crizotinib] (partner 1 µM), the relative viability (Calu-6; first compound 0.005 µM) was 0.843, the relative viability (Calu-6; first compound 0.01581 µM) was 0.812 and the relative viability (Calu-6; first compound 0.05 µM) was 0.894. The relative viability (Calu-6; first compound 0.1581 µM) was 0.741, the relative viability (Calu-6; first compound 0.5 µM) was 0.78 and the relative viability (EBC-1; first compound 0.005 µM) was 0.178. It also gave a relative viability (EBC-1; first compound 0.01581 µM) of 0.227, a relative viability (EBC-1; first compound 0.05 µM) of 0.192 and a relative viability (EBC-1; first compound 0.1581 µM) of 0.195. It also gave a relative viability (EBC-1; first compound 0.5 µM) of 0.204, a relative viability (NCI-H1355; first compound 0.005 µM) of 1.03 and a relative viability (NCI-H1355; first compound 0.01581 µM) of 1.15. It also gave a relative viability (NCI-H1355; first compound 0.05 µM) of 1.02, a relative viability (NCI-H1355; first compound 0.1581 µM) of 1.05 and a relative viability (NCI-H1355; first compound 0.5 µM) of 1.03. It also gave a relative viability (LCLC-103H; first compound 0.005 µM) of 1.05, a relative viability (LCLC-103H; first compound 0.01581 µM) of 0.979 and a relative viability (LCLC-103H; first compound 0.05 µM) of 0.951. It also gave a relative viability (LCLC-103H; first compound 0.1581 µM) of 1.12, a relative viability (LCLC-103H; first compound 0.5 µM) of 0.976 and a relative viability (NCI-H1703; first compound 0.005 µM) of 0.73. For the same compound, the relative viability (NCI-H1703; first compound 0.01581 µM) was 0.602, the relative viability (NCI-H1703; first compound 0.05 µM) was 1.22 and the relative viability (NCI-H1703; first compound 0.1581 µM) was 0.726. For the same compound, the relative viability (NCI-H1703; first compound 0.5 µM) was 0.754, the relative viability (NCI-H1299; first compound 0.005 µM) was 0.99 and the relative viability (NCI-H1299; first compound 0.01581 µM) was 0.99. The relative viability (NCI-H1299; first compound 0.05 µM) was 1.02, the relative viability (NCI-H1299; first compound 0.1581 µM) was 0.926 and the relative viability (NCI-H1299; first compound 0.5 µM) was 0.981. The relative viability (A549; first compound 0.005 µM) was 0.756, the relative viability (A549; first compound 0.01581 µM) was 0.805 and the relative viability (A549; first compound 0.05 µM) was 0.825. The relative viability (A549; first compound 0.1581 µM) was 0.729, the relative viability (A549; first compound 0.5 µM) was 0.744 and the relative viability (IA-LM; first compound 0.005 µM) was 0.861. For the same compound, the relative viability (IA-LM; first compound 0.01581 µM) was 0.636, the relative viability (IA-LM; first compound 0.05 µM) was 0.875 and the relative viability (IA-LM; first compound 0.1581 µM) was 0.944. It also gave a relative viability (IA-LM; first compound 0.5 µM) of 0.908, a relative viability (NCI-H520; first compound 0.005 µM) of 0.751 and a relative viability (NCI-H520; first compound 0.01581 µM) of 0.715. It also gave a relative viability (NCI-H520; first compound 0.05 µM) of 0.762, a relative viability (NCI-H520; first compound 0.1581 µM) of 0.737 and a relative viability (NCI-H520; first compound 0.5 µM) of 0.79.
